Laboratory results published in ChEMBL document CHEMBL1201862, “PubChem BioAssay data set” (2004).
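Grown in 96-well plates, cells were treated for 48 hours with each compound at five concentrations. Insufficient inhibition: endpoint recorded as highest concentration tested. GI50 = concentration required for 50% inhibition of growth.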 Active and inactive are the calls of the source. No stated cut-off is given here; in the data, active = GI50 up to about 1.1 µM and inactive = higher.

Legend:
Experiment in all cases: NCI tumour cell line growth inhibition, 48 h
KM12 = system: KM12
MCF7 = system: MCF7
UACC-257 = system: UACC-257
RXF 393 = system: RXF 393
SW-620 = system: SW-620
NCI-H522 = system: NCI-H522
CAKI-1 = system: CAKI-1
HT-29 = system: HT-29
A498 = system: A498
SK-MEL-28 = system: SK-MEL-28
EKVX = system: EKVX
NCI-H23 = system: NCI-H23
MDA-N = system: MDA-N
HL-60 = system: HL-60
TK-10 = system: TK-10
T47D = system: T47D
Malme-3M = system: Malme-3M
DU-145 = system: DU-145
M14 = system: M14
SN12C = system: SN12C

C[C@]12CC[C@H]3[C@@H](CC=C4C[C@@H](O)CC[C@@]43C)[C@@H]1C/C(=C/c1ccccc1)[C@@H]2O
GI50 (KM12): 23 µM (inactive) | GI50 (MCF7): > 33 µM (inactive) | GI50 (UACC-257): 15.6 µM (inactive) | GI50 (RXF 393): > 25.1 µM (inactive) | GI50 (SW-620): > 51.8 µM (inactive) | GI50 (NCI-H522): 14.7 µM (inactive) | GI50 (CAKI-1): 30.3 µM (inactive) | GI50 (HT-29): 28.3 µM (inactive) | GI50 (A498): 17.2 µM (inactive) | GI50 (SK-MEL-28): > 44.6 µM (inactive) | GI50 (EKVX): 11.8 µM (inactive) | GI50 (NCI-H23): 15.9 µM (inactive) | GI50 (MDA-N): 20.1 µM (inactive) | GI50 (HL-60): > 43 µM (inactive) | GI50 (TK-10): 27.8 µM (inactive) | GI50 (T47D): > 22 µM (inactive) | GI50 (Malme-3M): 27.5 µM (inactive) | GI50 (DU-145): > 42.2 µM (inactive) | GI50 (M14): > 45.1 µM (inactive)

COc1ccc(P2(=S)Oc3ccccc3-c3ccccc3O2)cc1
GI50 (KM12): 0.499 µM (active) | GI50 (MCF7): 0.377 µM (active) | GI50 (UACC-257): 1.35 µM (inactive) | GI50 (SW-620): 0.423 µM (active) | GI50 (NCI-H522): 0.193 µM (active) | GI50 (CAKI-1): 0.271 µM (active) | GI50 (HT-29): 0.274 µM (active) | GI50 (SN12C): 0.37 µM (active) | GI50 (A498): 0.306 µM (active) | GI50 (SK-MEL-28): > 67.1 µM (inactive) | GI50 (NCI-H23): 0.579 µM (active) | GI50 (MDA-N): 0.147 µM (active) | GI50 (HL-60): 0.284 µM (active) | GI50 (T47D): 36.1 µM (inactive) | GI50 (Malme-3M): 0.438 µM (active) | GI50 (DU-145): 0.542 µM (active) | GI50 (M14): 0.574 µM (active)

Cc1cc(S(=O)(=O)N=C2NCC(C)(C)CN2)c(S)cc1Cl
GI50 (KM12): 30.8 µM (inactive) | GI50 (MCF7): 42.5 µM (inactive) | GI50 (UACC-257): 42.3 µM (inactive) | GI50 (RXF 393): 38 µM (inactive) | GI50 (SW-620): 17.9 µM (inactive) | GI50 (NCI-H522): 27.9 µM (inactive) | GI50 (CAKI-1): 52 µM (inactive) | GI50 (HT-29): 19.3 µM (inactive) | GI50 (SN12C): 47.1 µM (inactive) | GI50 (A498): > 100 µM (inactive) | GI50 (SK-MEL-28): 36.6 µM (inactive) | GI50 (EKVX): 48.8 µM (inactive) | GI50 (MDA-N): 22.2 µM (inactive) | GI50 (HL-60): 25.8 µM (inactive) | GI50 (TK-10): 39 µM (inactive) | GI50 (T47D): 42.1 µM (inactive) | GI50 (Malme-3M): 44.7 µM (inactive) | GI50 (DU-145): 83.6 µM (inactive) | GI50 (M14): 31.9 µM (inactive)

C=C1CC(CN2CCC(=O)NC2=O)(c2ccccc2)OC1=O (configuration not stated)
GI50 (KM12): 20.9 µM (inactive) | GI50 (MCF7): 1.64 µM (inactive) | GI50 (UACC-257): 8.99 µM (inactive) | GI50 (SW-620): 1.94 µM (inactive) | GI50 (NCI-H522): 0.859 µM (active) | GI50 (CAKI-1): 2.75 µM (inactive) | GI50 (HT-29): 7.71 µM (inactive) | GI50 (SN12C): 17.6 µM (inactive) | GI50 (A498): 19.2 µM (inactive) | GI50 (SK-MEL-28): 13.4 µM (inactive) | GI50 (EKVX): 18.8 µM (inactive) | GI50 (NCI-H23): 7.18 µM (inactive) | GI50 (MDA-N): 10.8 µM (inactive) | GI50 (HL-60): 1.62 µM (inactive) | GI50 (TK-10): 5.94 µM (inactive) | GI50 (T47D): 3.13 µM (inactive) | GI50 (Malme-3M): 3.53 µM (inactive) | GI50 (DU-145): 15.9 µM (inactive) | GI50 (M14): 3.08 µM (inactive)

O=C(O)CN1C(=O)C(Cc2ccc(O)cc2)N=C(c2cccc(O)c2)c2ccccc21 (configuration not stated)
GI50 (KM12): > 100 µM (inactive) | GI50 (MCF7): > 100 µM (inactive) | GI50 (UACC-257): > 100 µM (inactive) | GI50 (SW-620): > 100 µM (inactive) | GI50 (NCI-H522): 80.4 µM (inactive) | GI50 (HT-29): > 100 µM (inactive) | GI50 (SN12C): 19 µM (inactive) | GI50 (A498): 12 µM (inactive) | GI50 (SK-MEL-28): > 100 µM (inactive) | GI50 (EKVX): > 100 µM (inactive) | GI50 (MDA-N): 11.5 µM (inactive) | GI50 (HL-60): > 100 µM (inactive) | GI50 (TK-10): > 100 µM (inactive) | GI50 (T47D): > 100 µM (inactive) | GI50 (Malme-3M): > 100 µM (inactive) | GI50 (DU-145): > 100 µM (inactive) | GI50 (M14): > 100 µM (inactive)

COC(=O)[C@H]1ON2O[C@@H](O[C@H]3CCCC[C@@H]3C(C)(C)c3ccccc3)C[C@@H]3CC[C@H]1[C@@]32C
GI50 (KM12): > 100 µM (inactive) | GI50 (MCF7): > 100 µM (inactive) | GI50 (UACC-257): > 100 µM (inactive) | GI50 (RXF 393): > 100 µM (inactive) | GI50 (SW-620): > 100 µM (inactive) | GI50 (NCI-H522): > 100 µM (inactive) | GI50 (CAKI-1): > 100 µM (inactive) | GI50 (HT-29): > 100 µM (inactive) | GI50 (SN12C): > 100 µM (inactive) | GI50 (A498): > 100 µM (inactive) | GI50 (EKVX): > 100 µM (inactive) | GI50 (NCI-H23): > 100 µM (inactive) | GI50 (MDA-N): > 100 µM (inactive) | GI50 (HL-60): > 100 µM (inactive) | GI50 (TK-10): > 100 µM (inactive) | GI50 (T47D): > 100 µM (inactive) | GI50 (DU-145): > 100 µM (inactive) | GI50 (M14): > 100 µM (inactive)

OC1=C2c3ccccc3NC2Oc2cc(F)ccc21 (configuration not stated)
GI50 (KM12): 15.4 µM (inactive) | GI50 (MCF7): 24.9 µM (inactive) | GI50 (UACC-257): 19 µM (inactive) | GI50 (RXF 393): 16.6 µM (inactive) | GI50 (SW-620): 19.6 µM (inactive) | GI50 (NCI-H522): 17.7 µM (inactive) | GI50 (CAKI-1): 19.5 µM (inactive) | GI50 (HT-29): 19.8 µM (inactive) | GI50 (SN12C): 12.7 µM (inactive) | GI50 (A498): 15.3 µM (inactive) | GI50 (SK-MEL-28): 30.1 µM (inactive) | GI50 (EKVX): 3.6 µM (inactive) | GI50 (NCI-H23): 12.9 µM (inactive) | GI50 (MDA-N): 15.8 µM (inactive) | GI50 (TK-10): 25.1 µM (inactive) | GI50 (T47D): 19.2 µM (inactive) | GI50 (Malme-3M): 20.4 µM (inactive) | GI50 (DU-145): 18.5 µM (inactive) | GI50 (M14): 17.3 µM (inactive)

CN[C@@H](C)[C@H](OP(=O)(O)OC1[C@@H](O)[C@H](O)C(O)[C@H](O)[C@@H]1O)c1ccccc1 (some centres not stated)
GI50 (KM12): > 100 µM (inactive) | GI50 (MCF7): > 100 µM (inactive) | GI50 (UACC-257): > 100 µM (inactive) | GI50 (SW-620): > 100 µM (inactive) | GI50 (NCI-H522): > 100 µM (inactive) | GI50 (CAKI-1): > 100 µM (inactive) | GI50 (HT-29): > 100 µM (inactive) | GI50 (SN12C): > 100 µM (inactive) | GI50 (A498): > 100 µM (inactive) | GI50 (SK-MEL-28): > 100 µM (inactive) | GI50 (EKVX): > 100 µM (inactive) | GI50 (NCI-H23): > 100 µM (inactive) | GI50 (MDA-N): > 100 µM (inactive) | GI50 (HL-60): > 100 µM (inactive) | GI50 (TK-10): > 100 µM (inactive) | GI50 (T47D): > 100 µM (inactive) | GI50 (Malme-3M): > 100 µM (inactive) | GI50 (DU-145): > 100 µM (inactive) | GI50 (M14): > 100 µM (inactive)

Nc1nc(N)c(C2=CCN(Cc3ccccc3)CC2)c(=O)[nH]1
GI50 (KM12): > 100 µM (inactive) | GI50 (MCF7): > 100 µM (inactive) | GI50 (UACC-257): > 100 µM (inactive) | GI50 (RXF 393): > 100 µM (inactive) | GI50 (SW-620): > 100 µM (inactive) | GI50 (NCI-H522): > 100 µM (inactive) | GI50 (CAKI-1): > 100 µM (inactive) | GI50 (HT-29): > 100 µM (inactive) | GI50 (SN12C): > 100 µM (inactive) | GI50 (A498): > 100 µM (inactive) | GI50 (SK-MEL-28): > 100 µM (inactive) | GI50 (EKVX): > 100 µM (inactive) | GI50 (NCI-H23): > 100 µM (inactive) | GI50 (MDA-N): > 100 µM (inactive) | GI50 (HL-60): > 100 µM (inactive) | GI50 (T47D): > 100 µM (inactive) | GI50 (Malme-3M): > 100 µM (inactive) | GI50 (DU-145): > 100 µM (inactive) | GI50 (M14): > 100 µM (inactive)

CN(C)C(n1cc2c(c1)-c1ccc(Cl)cc1C(c1ccccc1F)=NC2)n1cc2c(c1)-c1ccc(Cl)cc1C(c1ccccc1F)=NC2
GI50 (MCF7): 64.3 µM (inactive) | GI50 (UACC-257): > 100 µM (inactive) | GI50 (RXF 393): 20.2 µM (inactive) | GI50 (SW-620): > 100 µM (inactive) | GI50 (NCI-H522): 81.8 µM (inactive) | GI50 (CAKI-1): > 100 µM (inactive) | GI50 (HT-29): 14.3 µM (inactive) | GI50 (SN12C): > 100 µM (inactive) | GI50 (A498): 8.17 µM (inactive) | GI50 (SK-MEL-28): 21.5 µM (inactive) | GI50 (EKVX): > 100 µM (inactive) | GI50 (NCI-H23): 3.31 µM (inactive) | GI50 (MDA-N): 18.4 µM (inactive) | GI50 (HL-60): 51.3 µM (inactive) | GI50 (T47D): 38.4 µM (inactive) | GI50 (Malme-3M): > 100 µM (inactive) | GI50 (DU-145): 54 µM (inactive) | GI50 (M14): 93.1 µM (inactive)

Nc1c(C(=O)O)nnc2cc(Cl)ccc12
GI50 (KM12): > 100 µM (inactive) | GI50 (MCF7): > 100 µM (inactive) | GI50 (UACC-257): > 100 µM (inactive) | GI50 (SW-620): > 100 µM (inactive) | GI50 (NCI-H522): > 100 µM (inactive) | GI50 (CAKI-1): > 100 µM (inactive) | GI50 (HT-29): > 100 µM (inactive) | GI50 (SN12C): > 100 µM (inactive) | GI50 (A498): 85.3 µM (inactive) | GI50 (EKVX): > 100 µM (inactive) | GI50 (NCI-H23): > 100 µM (inactive) | GI50 (MDA-N): > 100 µM (inactive) | GI50 (HL-60): > 100 µM (inactive) | GI50 (TK-10): > 100 µM (inactive) | GI50 (T47D): > 100 µM (inactive) | GI50 (Malme-3M): > 100 µM (inactive) | GI50 (DU-145): > 100 µM (inactive) | GI50 (M14): > 100 µM (inactive)
